Laboratory results reported in ChEMBL document CHEMBL1152960 (Bioorg Med Chem, 2009).

Experiments:
[1] = target: T1, Adenosine receptor A1 (Homo sapiens, UniProt P30542); assay: Displacement of [3H]DPCPX from human recombinant adenosine A1 receptor expressed in HEK293T cells by scintillation counting; format: cell-based, HEK-293T
T1 sequence (P30542 whole entry): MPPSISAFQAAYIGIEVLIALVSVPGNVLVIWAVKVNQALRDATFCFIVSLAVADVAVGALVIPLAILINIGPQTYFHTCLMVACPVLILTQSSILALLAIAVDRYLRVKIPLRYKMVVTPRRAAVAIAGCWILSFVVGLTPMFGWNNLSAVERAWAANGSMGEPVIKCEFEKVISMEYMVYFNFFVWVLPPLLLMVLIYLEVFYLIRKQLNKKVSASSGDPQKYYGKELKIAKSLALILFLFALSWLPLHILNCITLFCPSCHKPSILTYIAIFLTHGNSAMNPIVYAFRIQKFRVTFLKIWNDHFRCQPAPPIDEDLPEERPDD

[2] = target: T2, Adenosine receptor A3 (Homo sapiens, UniProt P0DMS8); assay: Displacement of [3H]NECA from human recombinant adenosine A3 receptor expressed in HEK293T cells by scintillation counting; format: cell-based, HEK-293T
T2 sequence (P0DMS8 whole entry): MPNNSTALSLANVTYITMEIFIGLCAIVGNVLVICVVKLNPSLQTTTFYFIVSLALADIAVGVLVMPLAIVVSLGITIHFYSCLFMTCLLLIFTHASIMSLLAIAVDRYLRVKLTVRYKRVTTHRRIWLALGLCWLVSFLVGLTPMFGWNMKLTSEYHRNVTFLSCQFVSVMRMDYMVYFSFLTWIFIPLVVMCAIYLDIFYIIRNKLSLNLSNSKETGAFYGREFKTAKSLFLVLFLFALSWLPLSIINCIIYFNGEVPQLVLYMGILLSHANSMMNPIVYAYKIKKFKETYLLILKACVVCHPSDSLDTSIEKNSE

[3] = target: Adenosine receptor A2a (Homo sapiens, UniProt P29274); assay: biochemical
Description: Displacement of [3H]CGS21680 from human recombinant adenosine A2A receptor expressed in HEK293T cells by scintillation counting

[4] = target: T3, Adenosine receptor A3 (Homo sapiens) (UniProt P0DMS8); assay: Inhibition of [3H]NECA binding to human recombinant adenosine A3 receptor expressed in HEK293T cells at 100 uM by scintillation counting; format: cell-based; details: HEK-293T
T3 sequence (whole entry): T2 sequence (P0DMS8 whole entry)

Adenosine receptor A2a, sequence (P29274 whole entry): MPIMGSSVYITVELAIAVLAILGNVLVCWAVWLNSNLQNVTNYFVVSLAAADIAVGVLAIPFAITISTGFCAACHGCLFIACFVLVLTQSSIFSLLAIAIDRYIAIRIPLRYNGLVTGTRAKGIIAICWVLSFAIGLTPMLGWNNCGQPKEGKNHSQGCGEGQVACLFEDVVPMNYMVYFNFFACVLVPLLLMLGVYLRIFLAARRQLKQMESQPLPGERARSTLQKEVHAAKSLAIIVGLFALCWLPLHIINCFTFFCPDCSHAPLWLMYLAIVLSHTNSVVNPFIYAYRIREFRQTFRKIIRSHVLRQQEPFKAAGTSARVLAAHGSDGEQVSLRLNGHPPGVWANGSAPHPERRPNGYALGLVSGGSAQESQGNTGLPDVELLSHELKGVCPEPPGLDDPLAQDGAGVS

Row | Ki [1] | Ki [2] | Ki [3] | inhibition [4] | Structure (SMILES)
1 | 1410 nM | 290 nM | 3630 nM |  | CCCn1c(=O)c2[nH]c3cnccc3c2n(CCC)c1=O
2 | 379 nM | 13.9 nM | 893 nM |  | Cn1c(=O)c2[nH]c3cccnc3c2n(C)c1=O
3 | 11700 nM | 526 nM | 10100 nM |  | Cn1c(=O)c2[nH]c3cnccc3c2n(C)c1=O
4 | 921 nM | 209 nM | 1470 nM |  | CCCOc1cnc2c(c1)[nH]c1c(=O)n(CCC)c(=O)n(CCC)c12
5 |  |  |  | 9% | Cn1c(=O)c2c(ncn2C)n(C)c1=O
6 | 132 nM | 16.8 nM | 570 nM |  | CCCn1c(=O)c2[nH]c3cccnc3c2n(CCC)c1=O
7 | 346 nM | 3.82 nM | 164 nM |  | CCCOc1cncc2[nH]c3c(=O)n(CCC)c(=O)n(CCC)c3c12
